Experimental data as given in US5591741A, “Fungicidal spiroheterocyclic derivatives” (American Cyanamid Company, priority 1993, dated 1997).

Key:
Plasmopara viticola = experiment: Antisporulant activity against vine downy mildew (PVA); assay type: in vivo; details: vine leaves, antisporulant foliar spray, 600 ppm, 750 l/ha
Method in brief: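 Cabernet Sauvignon vines (~8 cm) inoculated on lower leaf surfaces with 5×10^4 zoosporangia/ml, held 24 h at 21° C high humidity then 24 h glasshouse. Infected leaves sprayed underside with 600 ppm compound in 1:1 water/acetone, 0.04% Tween 20, 750 l/ha; 96 h glasshouse, 24 h humidity. Sporulating leaf area rated versus control.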

Alternaria solani = experiment: Activity against tomato early blight (AS); assay type: in vivo; details: Table VI; tomato seedlings, contact prophylactic foliar spray, 4 days
Method in brief: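 Plants were challenged with A. solani conidia (10^4 spores/ml) 24 h after a protective foliar spray of compound in 50:50 acetone/water plus 0.04% Tween 20. Held humid at 21° C for 4 days, then percent leaf area with lesions was scored as a rating relative to controls.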

Botrytis cinerea = experiment: Direct protectant activity against broad bean grey mould (BCB); assay type: in vivo; details: direct protectant foliar spray, 600 ppm, 4 days
Method in brief: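 Protectant foliar test: lesion coverage assessed 4 days after inoculation and rated relative to untreated or diluent-sprayed plants. Compound applied at 600 ppm to cv The Sutton leaves 24 h before 10^6 conidia/ml suspension; incubation at 22 °C in high humidity.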

Leptosphaeria nodorum = experiment: Activity against wheat leafspot (LN); assay type: in vivo; details: direct therapeutic foliar spray, 600 ppm, 6-8 days
Method in brief: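 Therapeutic foliar spray: compound at 600 ppm applied to single-leaf wheat (cv Norman) 24 h after inoculation with 1.5×10^6 conidia/ml. Disease control scored after 6-8 days at 22° C and 70% humidity as lesions per leaf versus untreated or diluent-sprayed controls.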

[1] = system: Erysiphe graminis f.sp. hordei; experiment: Activity against barley powdery mildew, direct therapeutic (EGT); assay type: in vivo; details: direct therapeutic foliar spray, 600 ppm, up to 7 days
Method in brief: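 A curative spray at 600 ppm was applied to single-leaf Golden Promise barley inoculated with powdery mildew conidia the previous day. After up to 7 days at 18 °C and 40% humidity, disease control was rated from percent leaf area sporulating relative to untreated or diluent-sprayed controls.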

[2] = system: Erysiphe graminis f.sp. hordei; experiment: Direct protectant activity against barley powdery mildew (EGP); assay type: in vivo; details: direct protectant foliar spray, 8 days
Method in brief: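 Rating reflects percentage of leaf area with sporulation compared with untreated or diluent-sprayed controls. Protectant spray was applied to single-leaf barley (cv Golden Promise) 24 h before conidia inoculation. Plants were kept at 18 °C and 40% RH throughout, with 8 days of disease development.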

Phytophthora infestans = assay type: in vivo; details: tomato, direct protectant foliar spray
[3] = system: Pseudocercosporella herpotrichoides; experiment: Activity against wheat eyespot in-vitro (PHI); assay type: cell-based; details: 10 ppm, 10 days, 20° C., mycelial growth
Method in brief: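 Mycelial growth was scored after 10 days at 20 °C against untreated or diluent controls. The broth was half-strength potato dextrose, holding 10 ppm test compound (from acetone) and 5×10^4 fragments/ml of the eyespot fungus.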

Rhizoctonia solani = experiment: Activity against Rhizoctonia in-vitro (RSI); assay type: cell-based; details: 10 ppm, 10 days, 20° C., mycelial growth
Method in brief: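 Compound at a final 10 ppm (acetone vehicle) in half-strength PDB, inoculated with 5×10^4 fragments/ml of shaken-culture R. solani mycelium. After incubation at 20° C for 10 days, growth scored as a rating versus untreated or diluent-treated controls.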

Venturia inaequalis = experiment: Activity against apple scab in-vitro (VII); assay type: cell-based; details: 10 ppm, 10 days, 20° C., mycelial growth
Method in brief: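 V. inaequalis propagules (5×10^4/ml, malt agar-grown) were exposed in half-strength PDB to 10 ppm final test compound delivered in acetone. Growth was scored after incubation for 10 days at 20° C, as a rating relative to untreated or diluent-sprayed controls.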

Pyricularia oryzae = assay type: in vivo; details: rice seedlings, direct therapeutic foliar spray, 600 ppm, 4-5 days

Structure (SMILES) | disease control rating PVA (Plasmopara viticola) | disease control rating AS (Alternaria solani) | disease control rating BCB (Botrytis cinerea) | disease control rating LN (Leptosphaeria nodorum) | disease control rating EGT [1] | disease control rating EGP [2] | disease control rating PIP (Phytophthora infestans) | disease control rating PHI [3] | disease control rating RSI (Rhizoctonia solani) | disease control rating VII (Venturia inaequalis) | disease control rating PO (Pyricularia oryzae)
CC(C)CCCC(C)NC1COC2(CCC(C(C)(C)C)CC2)C1 (stereo not shown) [Compound 107] | 0 (less than 50% disease control) | 0 (less than 50% disease control) | 0 (less than 50% disease control) | 0 (less than 50% disease control) | 2 (greater than 80% disease control) | 2 (greater than 80% disease control) | 2 (greater than 80% disease control) | 1 (about 50-80% disease control) | 1 (about 50-80% disease control) | 1 (about 50-80% disease control) | 0 (less than 50% disease control)
CC(C)(C)C1CCC2(CC1)CC(NCCC1=CCCCC1)CO2 (stereo not shown) [Compound 108] | 0 (less than 50% disease control) | 0 (less than 50% disease control) | 2 (greater than 80% disease control) | 0 (less than 50% disease control) | 2 (greater than 80% disease control) | 2 (greater than 80% disease control) | 2 (greater than 80% disease control) | 1 (about 50-80% disease control) | 1 (about 50-80% disease control) | 1 (about 50-80% disease control) | 0 (less than 50% disease control)
CC(C)(C)C1CCC(NC2COC3(CCC(C(C)(C)C)CC3)C2)CC1 (stereo not shown) [Compound 109] | 0 (less than 50% disease control) | 1 (about 50-80% disease control) | 2 (greater than 80% disease control) | 0 (less than 50% disease control) | 2 (greater than 80% disease control) | 2 (greater than 80% disease control) | 2 (greater than 80% disease control) | 1 (about 50-80% disease control) | 1 (about 50-80% disease control) | 2 (greater than 80% disease control) | 0 (less than 50% disease control)
CC(C)CC(C)NC1COC2(CCC(C(C)(C)C)CC2)C1 (stereo not shown) [Compound 110] | 0 (less than 50% disease control) | 0 (less than 50% disease control) | 1 (about 50-80% disease control) | 0 (less than 50% disease control) | 2 (greater than 80% disease control) | 2 (greater than 80% disease control) | 2 (greater than 80% disease control) | 1 (about 50-80% disease control) | 1 (about 50-80% disease control) | 1 (about 50-80% disease control) | 0 (less than 50% disease control)
CC(C)(C)CCNC1COC2(CCC(C(C)(C)C)CC2)C1 (stereo not shown) [Compound 111] | 0 (less than 50% disease control) | 0 (less than 50% disease control) | 1 (about 50-80% disease control) | 0 (less than 50% disease control) | 2 (greater than 80% disease control) | 2 (greater than 80% disease control) | 2 (greater than 80% disease control) | 0 (less than 50% disease control) | 1 (about 50-80% disease control) | 1 (about 50-80% disease control) | 0 (less than 50% disease control)
CCC(C)CC(C)NC1COC2(CCC(C(C)(C)C)CC2)C1 (stereo not shown) [Compound 112] | 0 (less than 50% disease control) | 0 (less than 50% disease control) | 0 (less than 50% disease control) | 0 (less than 50% disease control) | 2 (greater than 80% disease control) | 2 (greater than 80% disease control) | 2 (greater than 80% disease control) | 1 (about 50-80% disease control) | 1 (about 50-80% disease control) | 1 (about 50-80% disease control) | 0 (less than 50% disease control)
C1CCC2CN(C3COC4(C3)C3CC5CC(C3)CC4C5)CCC2C1 (stereo not shown) [Compound 113] | 0 (less than 50% disease control) | 0 (less than 50% disease control) | 1 (about 50-80% disease control) | 0 (less than 50% disease control) | 0 (less than 50% disease control) | 1 (about 50-80% disease control) | 1 (about 50-80% disease control) | 0 (less than 50% disease control) | 0 (less than 50% disease control) | 1 (about 50-80% disease control) | 0 (less than 50% disease control)
CC(C)(C)C1CCC2(CC1)CC(N1CCc3ccccc3C1)CO2 (stereo not shown) [Compound 114] | 0 (less than 50% disease control) | 1 (about 50-80% disease control) | 2 (greater than 80% disease control) | 0 (less than 50% disease control) | 2 (greater than 80% disease control) | 2 (greater than 80% disease control) | 2 (greater than 80% disease control) | 0 (less than 50% disease control) | 0 (less than 50% disease control) | 1 (about 50-80% disease control) | 0 (less than 50% disease control)
